Common to all, as to format: biochemical
Assay [1] has as its target hck (Homo sapiens, UniProt P08631). In words: hck kinase assay (ELISA or Alphascreen). Conditions: read-out: hck inhibition of enzyme activity. The essentials: (§1)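 PTK domain ~1.5 μg; 50 mM HEPES pH 7.5, 10 mM MgCl2, 150 mM NaCl; ATP 10 μM-1 mM; biotinylated peptide 5 μM final. Read-out: avidin-capture ELISA with PY20 or Alphascreen pTyr acceptor/streptavidin donor beads.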

For assay [2], the target named is T1, human JAK2 (Homo sapiens, UniProt O60674).
T1 construct: The kinase domain of human JAK2 was amplified from U937mRNA; His tag (from the pFastBac HTc vector) (N); made in house; host or cells: baculovirus; Sf9 for virus, High Five insect cells for production
Description: JAK2 kinase assay (ELISA or Alphascreen). To be noted: read-out: Jak2 inhibition of enzyme activity. The method, boiled down: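 His-tagged human JAK2 kinase domain from baculovirus-infected insect cells, ~1.5 μg per assay, in 50 mM HEPES pH 7.5, 10 mM MgCl2, 150 mM NaCl, with 10 μM–1 mM ATP and 5 μM biotinylated peptide substrate. Phosphotyrosine detected by PY20 ELISA or AlphaScreen.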

The target of assay [3] is T2, fms (Homo sapiens, UniProt P07333).
T2 sequence (P07333 582-910 limits assumed): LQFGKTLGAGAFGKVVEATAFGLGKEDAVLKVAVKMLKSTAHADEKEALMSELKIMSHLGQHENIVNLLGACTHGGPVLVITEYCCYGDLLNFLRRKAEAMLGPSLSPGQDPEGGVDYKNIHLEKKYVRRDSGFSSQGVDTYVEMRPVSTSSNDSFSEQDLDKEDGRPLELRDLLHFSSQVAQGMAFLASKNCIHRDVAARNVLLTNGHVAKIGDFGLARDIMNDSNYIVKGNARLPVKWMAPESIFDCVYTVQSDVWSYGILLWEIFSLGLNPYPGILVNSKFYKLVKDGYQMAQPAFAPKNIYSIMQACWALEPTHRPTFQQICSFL
In words: fms kinase assay (ELISA or Alphascreen). To be noted: read-out: fms inhibition of enzyme activity. The essentials: as §1

For assay [4], the target named is fes (Homo sapiens, UniProt P07332). In words: fes kinase assay (ELISA or Alphascreen). Conditions: read-out: fes inhibition of enzyme activity. The essentials:
as §1

Assay [5] deals with T3, abl (Homo sapiens, UniProt P00519).
T3 sequence (P00519 242-493 limits assumed): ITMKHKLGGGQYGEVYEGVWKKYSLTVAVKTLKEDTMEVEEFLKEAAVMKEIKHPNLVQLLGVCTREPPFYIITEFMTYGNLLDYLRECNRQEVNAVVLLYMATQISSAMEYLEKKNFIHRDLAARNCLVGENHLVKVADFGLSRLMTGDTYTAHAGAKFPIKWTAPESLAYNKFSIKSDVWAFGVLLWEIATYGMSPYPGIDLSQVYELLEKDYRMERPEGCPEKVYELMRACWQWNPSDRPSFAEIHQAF
Description: abl kinase assay (ELISA or Alphascreen). To be noted: read-out: abl inhibition of enzyme activity. The method, boiled down:
as §1

Assay [6] has as its target T4, Zap70 (Homo sapiens, UniProt P43403).
T4 sequence (P43403 338-600 limits assumed): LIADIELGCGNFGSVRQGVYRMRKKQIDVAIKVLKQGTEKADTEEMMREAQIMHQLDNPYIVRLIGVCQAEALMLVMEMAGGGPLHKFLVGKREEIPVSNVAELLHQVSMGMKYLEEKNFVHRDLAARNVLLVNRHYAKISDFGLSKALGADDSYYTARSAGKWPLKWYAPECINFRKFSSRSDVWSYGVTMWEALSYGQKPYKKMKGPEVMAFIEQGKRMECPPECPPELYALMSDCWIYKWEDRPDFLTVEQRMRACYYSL
In words: Zap70 kinase assay (ELISA or Alphascreen). To be noted: read-out: Zap70 inhibition of enzyme activity. The method, boiled down: as §1

The target of assay [7] is T5, human JAK3 (Homo sapiens, UniProt P52333).
T5 construct: The kinase domain of human JAK3 was amplified from U937mRNA; His tag (from the pFastBac HTb vector) (N); made in house; host or cells: baculovirus; Sf9 for virus, High Five insect cells for production
In words: JAK3 kinase assay (ELISA or Alphascreen). Conditions: read-out: Jak3 inhibition of enzyme activity. The method, boiled down:
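Read-out: anti-phosphotyrosine detection of a 5 μM biotin-peptide substrate, via PY20-peroxidase ELISA or Alphascreen beads. Enzyme was nickel-purified recombinant JAK3 kinase domain (~1.5 μg), with ATP at 10 μM-1 mM, pH 7.5 HEPES/MgCl2/NaCl.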

T1 sequence (O60674 849-1124 limits assumed): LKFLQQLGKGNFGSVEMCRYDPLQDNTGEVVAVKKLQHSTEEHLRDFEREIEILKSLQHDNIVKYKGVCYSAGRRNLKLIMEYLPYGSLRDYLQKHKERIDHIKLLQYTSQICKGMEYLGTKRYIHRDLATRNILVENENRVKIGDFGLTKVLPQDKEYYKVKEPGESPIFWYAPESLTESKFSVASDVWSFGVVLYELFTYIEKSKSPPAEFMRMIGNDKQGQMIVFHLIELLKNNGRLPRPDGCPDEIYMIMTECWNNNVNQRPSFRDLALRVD
T5 sequence (P52333 822-1111 limits assumed): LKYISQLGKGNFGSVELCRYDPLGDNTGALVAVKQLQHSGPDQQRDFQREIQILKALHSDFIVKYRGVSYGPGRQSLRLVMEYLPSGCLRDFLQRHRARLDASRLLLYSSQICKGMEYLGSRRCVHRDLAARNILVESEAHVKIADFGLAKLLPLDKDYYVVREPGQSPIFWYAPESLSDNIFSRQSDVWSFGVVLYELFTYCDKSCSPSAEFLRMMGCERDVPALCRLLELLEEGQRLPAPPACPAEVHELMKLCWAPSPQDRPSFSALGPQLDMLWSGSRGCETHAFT
Chain of hck (P08631 262-515 limits assumed, species assumed): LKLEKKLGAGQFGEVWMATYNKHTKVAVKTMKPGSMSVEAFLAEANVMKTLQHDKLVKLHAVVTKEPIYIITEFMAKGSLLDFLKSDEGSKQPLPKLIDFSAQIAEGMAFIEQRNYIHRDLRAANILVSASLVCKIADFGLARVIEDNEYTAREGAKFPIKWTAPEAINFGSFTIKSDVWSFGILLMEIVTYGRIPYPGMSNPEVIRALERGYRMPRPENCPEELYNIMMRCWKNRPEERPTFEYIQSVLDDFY
Chain of fes (P07332 561-822 limits assumed, species assumed): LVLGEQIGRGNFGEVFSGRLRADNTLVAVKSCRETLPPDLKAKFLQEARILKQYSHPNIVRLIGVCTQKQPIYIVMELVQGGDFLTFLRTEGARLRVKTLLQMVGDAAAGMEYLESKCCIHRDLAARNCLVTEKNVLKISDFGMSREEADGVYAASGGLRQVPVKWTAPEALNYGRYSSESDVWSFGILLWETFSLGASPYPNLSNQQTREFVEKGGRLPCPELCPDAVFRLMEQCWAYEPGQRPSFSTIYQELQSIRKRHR

Regarding `Cc1cc(-c2cncc(C(=O)NCc3ccncc3)c2)cc(C)c1O`, the inhibition at 10 µM is below 50% in assay [1]; below 50% in assay [2]; at least 50% in assay [3]; below 50% in assay [4]; below 50% in assay [5]; below 50% in assay [6]. In addition, the inhibition at 10 µM in assay [7] was below 50%.

Take `Cc1cc(-c2cncc(C(=O)NCc3ccco3)c2)cc(C)c1O`: the inhibition at 10 µM in assay [1] was below 50%; in assay [2], below 50%; in assay [3], below 50%; in assay [4] it was below 50%; in assay [5], below 50%; in assay [6], at least 50%. The inhibition at 10 µM in assay [7] was below 50%.

For the compound `Cc1cc(-c2cncc(C(=O)NC(C)C)c2)cc(C)c1O`, the inhibition at 10 µM in assay [1] was below 50%; in assay [2] it was below 50%; in assay [3], below 50%; in assay [4] it was below 50%; in assay [5], below 50%; in assay [6], at least 50%. The inhibition at 10 µM in assay [7] is below 50%.

As for `COc1cc(-c2cncc(C(=O)Nc3cc(F)ccc3C)c2)c(Cl)c(OC)c1OC`, the inhibition at 10 µM was at least 50% in assay [1]; below 50% in assay [2]; at least 50% in assay [3]; below 50% in assay [4]; below 50% in assay [5]; below 50% in assay [6]. For the same compound, the inhibition at 10 µM in assay [7] is below 50%.

Turning to `COc1cccc(-c2cncc(C(=O)Nc3cc(C)ccc3C)c2)c1`, the inhibition at 10 µM was at least 50% in assay [1]; below 50% in assay [2]; below 50% in assay [3]; below 50% in assay [4]; below 50% in assay [5]; at least 50% in assay [6]. For the same compound, the inhibition at 10 µM in assay [7] is below 50%.

Take `COc1cc(-c2cncc(C(=O)Nc3ccc(F)cc3C)c2)ccc1O`: the inhibition at 10 µM in assay [1] was at least 50%; in assay [2], below 50%; in assay [3] it was below 50%; in assay [4], below 50%; in assay [5], at least 50%; in assay [6], below 50%. The inhibition at 10 µM in assay [7] is below 50%.

The values above are taken from US8030336B2, “Nicotinamide-based kinase inhibitors” (YM Biosciences Australia Pty Ltd, priority 2002, dated 2011).
